14 molecules from PubChem BioAssay (NCI) can be followed below.

Holding throughout (assay): NCI anticancer screen, dose series, 48 h
Assay [1] deals with BT-549 breast.
In assay [2] the test system is CCRF-CEM leukemia.
Assay [3] deals with COLO 205 colon.
In assay [4] the test system is HT29 colon.
The test system of assay [5] is IGROV1 ovarian.
The test system of assay [6] is M14 melanoma.
Assay [7] concerns MCF7 breast.
Assay [8] concerns MDA-MB-435.
The subject of assay [9] is NCI-H23 lung.
The subject of assay [10] is OVCAR-3 ovarian.
Assay [11] has as its system SF-268 CNS.
The subject of assay [12] is SF-295 CNS.
Assay [13] has as its system SF-539 CNS.
Assay [14] has as its system SK-MEL-2 melanoma.
Assay [15] relates to SK-MEL-28 melanoma.
The subject of assay [16] is SNB-19 CNS.
The test system of assay [17] is SNB-75 CNS.
Assay [18] deals with UACC-62 melanoma.
For assay [19], the system named is UO-31 renal.

SMILES strings stand for the structures.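 Briefly, cells in 96-well plates were exposed to five compound concentrations for 48 h, and endpoints were estimated by linear interpolation. The concentration for full growth arrest is given as TGI.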

As for `N=C1/C(=C/c2ccco2)C(=O)N=C2SC=NN12`, the TGI in assay [1], in assay [2], in [3], in [4], in assay [5] and in assay [6] was > 100 µM throughout. The TGI in [7], in assay [8], in assay [9], in assay [10], in assay [11] and in assay [12] was > 100 µM in each case. Besides, the TGI in [13], in assay [14], in [15], in assay [16], in assay [17] and in assay [18] was > 100 µM each time. Further, the TGI in assay [19] was > 100 µM.

For the molecule `CC(=O)NC1C(O)C(O)C(CO)OC1n1nc(SCc2ccccc2)c(=O)[nH]c1=O` (stereo unspecified), the TGI in assay [1], in [2], in assay [3], in [4], in assay [5] and in assay [6] was > 100 µM throughout. In addition, the TGI in assay [7], in [8], in assay [9], in assay [10], in assay [11] and in assay [12] was > 100 µM throughout. The TGI in assay [13], in assay [14], in assay [15], in assay [16], in assay [17] and in [18] was > 100 µM throughout. Besides, the TGI in assay [19] was > 100 µM.

As to `C[C@]12CCC(=O)C=C1CC[C@@H]1[C@@H]2CC[C@]2(C)C(=O)/C(=C/c3ccncc3)C[C@@H]12`, the TGI in assay [1] was 42.5 µM; in assay [2], > 100 µM; in assay [3], 27.4 µM; in [4], 32.7 µM; in assay [5], 61.9 µM; in assay [6] it was 29.4 µM. In addition, the TGI in assay [7] came out at 24.1 µM; in assay [8], 44.9 µM; in [9], 56.2 µM; in assay [10], 27.1 µM; in [11], 45 µM; in assay [12] it was 36.1 µM. Also, the TGI in assay [13] amounted to 46.1 µM; in assay [14], 28.9 µM; in assay [15], 45 µM; in [16] it was 26.8 µM; in assay [17], 45.1 µM; in [18] it was 25.6 µM. Besides, the TGI in assay [19] came out at 26.6 µM.

For `CC1(C)[C@H]2CC[C@](C)(C2)[C@]1(S)Cc1ccccn1`, the TGI in assay [1] is > 100 µM; in assay [2] it was 24.8 µM; in assay [3], > 100 µM; in assay [4] it was > 100 µM; in [5] it was > 100 µM; in [6] it was > 100 µM. Moreover, the TGI is > 100 µM in assay [7]; 91.9 µM in assay [8]; > 100 µM in assay [9]; 73 µM in assay [10]; > 100 µM in [11]; 98.8 µM in assay [12]. Further, the TGI was > 100 µM in assay [13]; 46.1 µM in [14]; > 100 µM in [15]; > 100 µM in assay [16]; 77.1 µM in [17]; > 100 µM in assay [18]. Moreover, the TGI in assay [19] was > 100 µM.

With `CCOC(=O)CC[C@H](NC(=O)c1ccc(CNc2nc3cc(C(F)(F)F)ccc3nc2C(=O)OCC)cc1)C(=O)OCC`, the TGI in assay [1] was 70.3 µM; in [2] it was > 100 µM; in assay [3] it was > 100 µM; in assay [4] it was > 100 µM; in assay [5] it was > 53.4 µM; in [6], > 66.2 µM. Further, the TGI is > 51.9 µM in assay [7]; > 100 µM in [8]; > 100 µM in assay [9]; > 53.2 µM in assay [10]; 34.4 µM in assay [11]; 24.7 µM in assay [12]. In addition, the TGI in [13] was 17.3 µM; in [14] it was > 94.1 µM; in [15] it was > 100 µM; in [16], 25.4 µM; in assay [17], 41.3 µM; in [18], 43 µM. In [19], this molecule gave a TGI of 70.3 µM.

`CC(=O)N(C(=O)CC(=O)NNCc1ccccc1Cl)c1ccc(Cl)cc1`: the TGI in [1], in [2], in [3], in assay [4], in [5] and in [6] was > 10 µM each time. Moreover, the TGI in assay [7], in assay [8], in assay [9], in assay [10], in [11] and in [12] was > 10 µM throughout. Further, the TGI in assay [13], in [14], in assay [15], in [16], in [17] and in assay [18] was > 10 µM in each case. The TGI in assay [19] was > 10 µM.

Turning to `O=C1c2ccccc2-c2nc(-c3cccs3)cc3c2c1nc1ccccc13`, the TGI was > 100 µM in assay [1]; > 100 µM in [2]; 37.5 µM in [3]; 62.6 µM in assay [4]; 92.5 µM in assay [5]; 18.3 µM in assay [6]. The TGI is 29.2 µM in assay [7]; 4.51 µM in assay [8]; 38.8 µM in [9]; 9.39 µM in assay [10]; 56.8 µM in assay [11]; > 100 µM in assay [12]. Also, the TGI in assay [13] was > 100 µM; in [14] it was 32 µM; in assay [15], 36.8 µM; in assay [16], > 100 µM; in assay [17], > 100 µM; in assay [18], 19.3 µM. Further, the TGI in assay [19] was > 100 µM.

As for `CC(/C=C/C=C\C=C\C=C(/C)C(=O)NC(C)CO)=C\C(C)C(O)/C(C)=C/C(C)CCc1ccccc1` (stereo unspecified), the TGI was 33.1 µM in assay [1]; > 56.6 µM in assay [2]; 26.8 µM in assay [3]; 25.2 µM in [4]; 20.1 µM in assay [5]; 23 µM in assay [6]. The TGI in assay [7] came out at 19.7 µM; in [8], 39.7 µM; in assay [9], 17 µM; in assay [10] it was 20 µM; in [11], 28.4 µM; in assay [12], 13.4 µM. Further, the TGI was found to be 27.1 µM in [13]; 29.6 µM in [14]; 25.9 µM in assay [15]; 35.8 µM in assay [16]; 26.7 µM in assay [17]; 25.6 µM in assay [18]. Besides, the TGI in assay [19] came to 27.3 µM.

With `O=c1[nH]c(=S)n(-c2cccc3ccccc23)c(O)c1/C=C1\C=Nc2ccccc21`, the TGI in assay [1] was 3.55 µM; in assay [2], 5.35 µM; in [3], 3.4 µM; in assay [4], 5.03 µM; in assay [5], 4.76 µM; in assay [6], 3.77 µM. Besides, the TGI stood at 7.19 µM in assay [7]; 6.69 µM in assay [8]; 3.48 µM in [9]; 12.6 µM in assay [10]; 11.4 µM in [11]; 10.3 µM in assay [12]. Further, the TGI in [13] is 5.38 µM; in assay [14], 3.55 µM; in assay [15] it was 6.06 µM; in assay [16], 11.3 µM; in assay [17], 6.42 µM; in assay [18], 3.26 µM. In [19], this molecule yielded a TGI of 4.93 µM.

For the molecule `Clc1ccc(C2ON=C(c3ccccc3)N2C23CC4CC(CC(C4)C2)C3)cc1Cl` (stereo unspecified), the TGI in assay [1], in assay [2], in assay [3], in assay [4], in assay [5] and in [6] was > 10 µM each time. The TGI in assay [7], in assay [8], in assay [9], in [10], in assay [11] and in assay [12] was > 10 µM each time. For the same molecule, the TGI in [13], in assay [14], in assay [15], in assay [16], in assay [17] and in assay [18] was > 10 µM in each case. Moreover, the TGI in [19] is > 10 µM.

Take `CCOC(=O)c1ccc(OCc2nc3cc(C(F)(F)F)ccc3nc2-c2ccccc2)cc1`: the TGI in assay [1], in assay [2], in assay [3], in assay [4], in [5] and in [6] was > 100 µM each time. For the same molecule, the TGI in assay [7], in assay [8], in assay [9], in [10], in assay [11] and in assay [12] was > 100 µM throughout. In addition, the TGI in assay [13], in assay [14], in assay [15], in assay [16], in assay [17] and in [18] was > 100 µM in each case. In addition, in [19], the TGI is > 100 µM.

`Nc1nc(Cl)cc(NCC2(CO)CC(CCCc3ccccc3)C2)n1` (stereo unspecified): the TGI in assay [1], in assay [2], in [3], in assay [4], in assay [5] and in assay [6] was > 100 µM each time. For the same molecule, the TGI in assay [7], in assay [8], in assay [9], in assay [10], in assay [11] and in assay [12] was > 100 µM throughout. For the same molecule, the TGI in assay [13] was > 100 µM; in assay [14] it was > 100 µM; in assay [15], > 100 µM; in assay [16], > 100 µM; in assay [17] it was 98.2 µM; in assay [18] it was > 100 µM. For the same molecule, the TGI in assay [19] is > 100 µM.

As for `CCCCCCCCCCCCCCCCCCNc1ccn(C2OC(COP(=O)(O)OCC(COP(=O)(O)OCC3OC(n4cc(C)c(=O)[nH]c4=O)CC3N=[N+]=[N-])OCCCCCCCCCCCCCCCCCC)C(O)C2O)c(=O)n1` (stereo unspecified), the TGI in assay [1], in assay [2], in assay [3], in assay [4], in assay [5] and in assay [6] was > 100 µM throughout. Besides, the TGI in assay [7], in [8], in [9], in assay [10], in assay [11] and in assay [12] was > 100 µM throughout. For the same molecule, the TGI in assay [13] was 88.7 µM; in assay [14] it was > 100 µM; in assay [15], > 100 µM; in [16], 50.5 µM; in assay [17], > 100 µM; in assay [18] it was > 100 µM. For the same molecule, in [19], the TGI is 33.1 µM.

Take `NCc1ccc(O)c(O)c1O`: the TGI was 34.2 µM in assay [1]; 56.6 µM in assay [2]; 35.5 µM in [3]; 29.2 µM in assay [4]; > 86.3 µM in [5]; 27.7 µM in [6]. In addition, the TGI was 36.3 µM in assay [7]; 32.7 µM in assay [8]; > 67.3 µM in [9]; 47 µM in [10]; 61.6 µM in assay [11]; > 57.7 µM in assay [12]. Also, the TGI in assay [13] is > 62.5 µM; in assay [14], 57.2 µM; in assay [15], > 100 µM; in [16], > 97.3 µM; in assay [17] it was > 100 µM; in [18] it was > 67.3 µM. Also, in assay [19], the TGI is > 100 µM.
